For one series, the system named is Bacillus cereus. The experiment in a line: Antibacterial activity against Bacillus cereus assessed as decrease in cell viability at > 50 uM after 30 mins under 2.5 mW/cm'2 white light by confocal microscopy/UV-diode laser method. It counts as functional, organism-based.
Series [1] can be described thus: Photostability of the compound in nitrogen-saturated phosphate buffer solution under 2.5 mW/cm'2 white light. It counts as physicochemical.
Series [2] is described as follows: Photostability of the compound in air-saturated phosphate buffer solution under 2.5 mW/cm'2 white light. It counts as physicochemical.
A short description of series [3]: 2-octanol-aqueous buffer partition coefficient, logP of the compound at pH 7.4. It counts as physicochemical.
A further series deals with Staphylococcus aureus. The series is described as follows: Antibacterial activity against Staphylococcus aureus assessed as decrease in cell viability at > 50 uM after 30 mins under 2.5 mW/cm'2 white light by confocal microscopy/UV-diode laser method. It counts as functional, organism-based.

SMILES strings stand for the structures. Active and inactive are the calls of the source. No cut-off for these calls is given here.

For the compound `Cc1cc(C)c(-c2c3nc(c(-c4c(OCC(=O)O)cc(OCC(=O)O)cc4OCC(=O)O)c4ccc([nH]4)c(-c4c(C)cc(C)cc4C)c4nc(c(-c5c(OCC(=O)O)cc(OCC(=O)O)cc5OCC(=O)O)c5ccc2[nH]5)C=C4)C=C3)c(C)c1`, the outcome with Bacillus cereus and with Staphylococcus aureus was Active. Besides, the figures for the Stability result in series [1] and in series [2] were “Stable” and “Unstable”, respectively. In series [3], the logD (usually the decadic logarithm of the distribution of all forms, ionised or not, between an organic phase and buffer at a given pH) is -0.77.

`O=C(O)COc1cc(OCC(=O)O)c(-c2c3nc(c(-c4ccc(C(=O)O)cc4)c4ccc([nH]4)c(-c4c(OCC(=O)O)cc(OCC(=O)O)cc4OCC(=O)O)c4nc(c(-c5ccc(C(=O)O)cc5)c5ccc2[nH]5)C=C4)C=C3)c(OCC(=O)O)c1`: in the series with Bacillus cereus, the outcome was inactive. The Stability result in series [1] is recorded as “Stable”; in series [2] it was “Unstable”. The compound also showed a logD in series [3] of -2.17. Besides, the result in the series with Staphylococcus aureus was Active.

The compound `CC(C)(C)OC(=O)COc1cc(OCC(=O)OC(C)(C)C)c(-c2c3nc(c(-c4ccc(C(=O)O)cc4)c4ccc([nH]4)c(-c4c(OCC(=O)OC(C)(C)C)cc(OCC(=O)OC(C)(C)C)cc4OCC(=O)OC(C)(C)C)c4nc(c(-c5ccc(C(=O)O)cc5)c5ccc2[nH]5)C=C4)C=C3)c(OCC(=O)OC(C)(C)C)c1` showed a logD in series [3] of 1.66.

Source of the values: ChEMBL document CHEMBL3351674, “Novel polycarboxylate porphyrins: synthesis, characterization, photophysical properties and preliminary antimicrobial study against Gram-positive bacteria” (Bioorg Med Chem Lett, 2015).
